Active and inactive are the calls of the source. No cut-off for these calls is given here.
Legend:
Homo sapiens = species: Homo sapiens; assay: Selectivity ratio of IC50 for NHE3 (unknown origin) to IC50 for NHE1 (unknown origin)
[1] = molecular target: Sodium/hydrogen exchanger 1 (Rattus norvegicus, UniProt P26431); assay: Inhibition of rat NHE1
[2] = molecular target: T1, Sodium/hydrogen exchanger 2 (Oryctolagus cuniculus, UniProt P50482); assay: Inhibition of rabbit NHE2
T1 sequence (P50482 whole entry): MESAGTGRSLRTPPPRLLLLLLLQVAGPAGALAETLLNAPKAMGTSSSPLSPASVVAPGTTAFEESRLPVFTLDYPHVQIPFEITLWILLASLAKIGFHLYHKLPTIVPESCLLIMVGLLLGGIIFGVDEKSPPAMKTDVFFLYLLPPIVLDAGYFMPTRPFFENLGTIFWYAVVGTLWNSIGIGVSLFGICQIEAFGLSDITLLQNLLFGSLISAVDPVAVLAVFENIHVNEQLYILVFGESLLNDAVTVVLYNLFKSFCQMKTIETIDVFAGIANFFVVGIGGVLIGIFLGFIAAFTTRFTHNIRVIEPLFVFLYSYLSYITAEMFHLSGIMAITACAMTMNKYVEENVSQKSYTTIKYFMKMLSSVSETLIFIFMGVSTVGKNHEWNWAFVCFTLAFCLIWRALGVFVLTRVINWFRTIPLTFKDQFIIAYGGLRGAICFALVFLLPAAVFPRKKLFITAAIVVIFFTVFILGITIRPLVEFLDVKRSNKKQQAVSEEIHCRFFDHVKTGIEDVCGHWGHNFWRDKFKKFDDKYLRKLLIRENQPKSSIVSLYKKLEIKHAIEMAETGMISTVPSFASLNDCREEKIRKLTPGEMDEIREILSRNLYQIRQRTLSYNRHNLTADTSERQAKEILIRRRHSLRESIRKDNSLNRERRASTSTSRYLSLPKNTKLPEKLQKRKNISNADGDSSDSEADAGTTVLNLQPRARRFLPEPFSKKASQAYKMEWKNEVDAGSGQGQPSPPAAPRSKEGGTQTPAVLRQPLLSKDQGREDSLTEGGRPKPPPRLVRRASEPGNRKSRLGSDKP

[3] = molecular target: Sodium/hydrogen exchanger 3 (Rattus norvegicus, UniProt P26433); assay: Inhibition of rat NHE3
[4] = molecular target: T2, Sodium/hydrogen exchanger 5 (Homo sapiens, UniProt Q14940); assay: Inhibition of NHE5 (unknown origin)
T2 sequence (Q14940 whole entry): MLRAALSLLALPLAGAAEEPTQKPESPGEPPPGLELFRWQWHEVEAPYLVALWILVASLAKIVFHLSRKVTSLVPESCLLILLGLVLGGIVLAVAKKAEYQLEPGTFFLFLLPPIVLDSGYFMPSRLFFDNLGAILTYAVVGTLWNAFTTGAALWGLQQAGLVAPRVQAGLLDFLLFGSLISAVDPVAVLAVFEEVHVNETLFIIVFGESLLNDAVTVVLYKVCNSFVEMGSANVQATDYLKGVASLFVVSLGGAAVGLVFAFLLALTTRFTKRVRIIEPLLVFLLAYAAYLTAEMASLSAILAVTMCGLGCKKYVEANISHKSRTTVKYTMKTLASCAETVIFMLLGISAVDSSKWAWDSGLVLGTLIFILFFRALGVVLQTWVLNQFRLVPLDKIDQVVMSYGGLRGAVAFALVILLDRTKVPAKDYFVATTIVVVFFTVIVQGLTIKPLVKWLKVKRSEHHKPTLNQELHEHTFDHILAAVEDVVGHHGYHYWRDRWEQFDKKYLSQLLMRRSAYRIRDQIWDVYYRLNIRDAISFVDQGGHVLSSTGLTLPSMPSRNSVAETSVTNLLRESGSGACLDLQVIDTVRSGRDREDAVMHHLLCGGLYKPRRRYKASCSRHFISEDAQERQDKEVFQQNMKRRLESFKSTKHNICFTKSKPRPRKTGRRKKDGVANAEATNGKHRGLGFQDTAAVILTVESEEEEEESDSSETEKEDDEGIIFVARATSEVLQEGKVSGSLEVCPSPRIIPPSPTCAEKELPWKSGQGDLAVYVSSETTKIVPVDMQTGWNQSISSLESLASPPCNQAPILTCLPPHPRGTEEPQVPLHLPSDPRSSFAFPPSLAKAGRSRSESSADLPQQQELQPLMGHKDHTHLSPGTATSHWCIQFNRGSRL

[5] = molecular target: T3, Sodium/hydrogen exchanger 2 (Rattus norvegicus, UniProt P48763); assay: Inhibition of rat NHE2
T3 sequence (P48763 whole entry): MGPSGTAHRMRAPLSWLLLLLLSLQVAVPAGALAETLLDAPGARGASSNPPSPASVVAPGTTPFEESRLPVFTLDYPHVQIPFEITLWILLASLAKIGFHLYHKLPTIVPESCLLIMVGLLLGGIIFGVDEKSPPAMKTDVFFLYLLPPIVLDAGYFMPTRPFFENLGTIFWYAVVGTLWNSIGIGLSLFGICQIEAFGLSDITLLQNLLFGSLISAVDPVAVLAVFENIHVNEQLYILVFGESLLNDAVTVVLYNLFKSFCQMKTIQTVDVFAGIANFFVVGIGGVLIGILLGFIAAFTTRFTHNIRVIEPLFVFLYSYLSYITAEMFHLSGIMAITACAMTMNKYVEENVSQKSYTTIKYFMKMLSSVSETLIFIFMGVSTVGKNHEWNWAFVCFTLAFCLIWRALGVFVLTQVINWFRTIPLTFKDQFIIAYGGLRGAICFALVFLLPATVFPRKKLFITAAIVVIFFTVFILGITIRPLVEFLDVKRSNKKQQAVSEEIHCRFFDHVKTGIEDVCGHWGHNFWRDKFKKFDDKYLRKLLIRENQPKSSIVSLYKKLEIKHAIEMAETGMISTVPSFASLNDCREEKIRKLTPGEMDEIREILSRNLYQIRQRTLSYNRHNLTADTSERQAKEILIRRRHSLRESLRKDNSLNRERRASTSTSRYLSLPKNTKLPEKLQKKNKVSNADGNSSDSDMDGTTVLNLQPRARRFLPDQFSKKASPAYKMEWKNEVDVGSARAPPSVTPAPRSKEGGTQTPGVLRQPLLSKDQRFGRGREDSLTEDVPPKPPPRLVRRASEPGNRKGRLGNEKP

[6] = molecular target: Sodium/hydrogen exchanger 1 (Oryctolagus cuniculus, UniProt P23791); assay: Inhibition of rabbit NHE1
Rattus norvegicus [7] = assay: Decrease in phosphorus urinary excretion in dietary salt-induced partial renal ablation Sprague-Dawley rat model of chronic kidney disease at 0.1 to 3 mg/kg/day added to normal chow pellets; assay type: functional, organism-based
Rattus norvegicus [8] = assay: Decrease in calcium urinary excretion in dietary salt-induced partial renal ablation Sprague-Dawley rat model of chronic kidney disease at 0.1 to 3 mg/kg/day added to normal chow pellets; assay type: functional, organism-based
Rattus norvegicus [9] = assay: In vivo inhibition of NHE3 in rat assessed as inhibition of 33Pi uptake at 10 mg/kg, po measured up to 120 mins; assay type: functional, organism-based

Sequence of Sodium/hydrogen exchanger 1 (Rattus norvegicus, UniProt P26431) (P26431 whole entry): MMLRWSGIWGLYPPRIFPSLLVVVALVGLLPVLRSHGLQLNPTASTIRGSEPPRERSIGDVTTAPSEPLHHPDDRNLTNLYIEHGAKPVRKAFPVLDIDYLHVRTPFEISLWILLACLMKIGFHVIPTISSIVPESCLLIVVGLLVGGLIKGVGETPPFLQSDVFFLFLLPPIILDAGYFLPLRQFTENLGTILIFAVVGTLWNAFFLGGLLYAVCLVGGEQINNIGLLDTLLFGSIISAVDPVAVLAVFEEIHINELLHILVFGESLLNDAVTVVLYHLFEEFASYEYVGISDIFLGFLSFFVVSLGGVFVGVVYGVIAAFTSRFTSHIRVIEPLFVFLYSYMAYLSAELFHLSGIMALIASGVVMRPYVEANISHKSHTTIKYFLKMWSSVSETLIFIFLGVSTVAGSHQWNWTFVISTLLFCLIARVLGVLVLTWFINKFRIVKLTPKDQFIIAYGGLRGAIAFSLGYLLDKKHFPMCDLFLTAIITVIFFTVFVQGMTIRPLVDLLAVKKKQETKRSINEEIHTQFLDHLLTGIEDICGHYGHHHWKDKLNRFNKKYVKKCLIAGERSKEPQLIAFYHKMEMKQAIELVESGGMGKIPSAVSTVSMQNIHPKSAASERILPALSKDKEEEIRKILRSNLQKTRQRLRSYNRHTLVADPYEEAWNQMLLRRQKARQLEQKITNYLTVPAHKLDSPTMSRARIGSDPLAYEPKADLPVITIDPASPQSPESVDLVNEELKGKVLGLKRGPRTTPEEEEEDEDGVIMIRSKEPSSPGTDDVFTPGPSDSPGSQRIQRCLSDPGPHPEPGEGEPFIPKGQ
Sequence of Sodium/hydrogen exchanger 3 (P26433 whole entry): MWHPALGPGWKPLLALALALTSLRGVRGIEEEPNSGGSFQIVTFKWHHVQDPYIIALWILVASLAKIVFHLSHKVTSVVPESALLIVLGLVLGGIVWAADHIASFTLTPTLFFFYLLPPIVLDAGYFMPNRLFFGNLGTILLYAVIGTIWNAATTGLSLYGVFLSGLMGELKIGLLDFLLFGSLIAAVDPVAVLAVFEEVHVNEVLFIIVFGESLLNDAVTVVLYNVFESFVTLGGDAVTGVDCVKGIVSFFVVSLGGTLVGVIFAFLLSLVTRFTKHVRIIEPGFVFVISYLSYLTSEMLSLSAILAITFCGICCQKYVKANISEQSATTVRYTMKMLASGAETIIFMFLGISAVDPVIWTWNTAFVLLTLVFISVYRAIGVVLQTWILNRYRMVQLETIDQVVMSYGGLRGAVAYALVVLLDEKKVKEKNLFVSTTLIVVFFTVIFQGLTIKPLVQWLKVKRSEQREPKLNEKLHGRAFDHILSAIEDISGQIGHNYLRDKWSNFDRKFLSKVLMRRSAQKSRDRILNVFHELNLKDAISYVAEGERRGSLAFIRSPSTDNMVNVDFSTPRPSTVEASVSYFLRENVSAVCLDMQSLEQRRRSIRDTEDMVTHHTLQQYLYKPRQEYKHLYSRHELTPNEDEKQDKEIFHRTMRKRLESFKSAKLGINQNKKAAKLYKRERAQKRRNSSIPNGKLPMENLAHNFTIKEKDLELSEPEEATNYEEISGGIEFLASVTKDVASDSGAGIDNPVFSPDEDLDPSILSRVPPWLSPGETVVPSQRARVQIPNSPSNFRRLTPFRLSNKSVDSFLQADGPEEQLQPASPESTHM
Sequence of Sodium/hydrogen exchanger 1 (Oryctolagus cuniculus, UniProt P23791) (P23791 whole entry): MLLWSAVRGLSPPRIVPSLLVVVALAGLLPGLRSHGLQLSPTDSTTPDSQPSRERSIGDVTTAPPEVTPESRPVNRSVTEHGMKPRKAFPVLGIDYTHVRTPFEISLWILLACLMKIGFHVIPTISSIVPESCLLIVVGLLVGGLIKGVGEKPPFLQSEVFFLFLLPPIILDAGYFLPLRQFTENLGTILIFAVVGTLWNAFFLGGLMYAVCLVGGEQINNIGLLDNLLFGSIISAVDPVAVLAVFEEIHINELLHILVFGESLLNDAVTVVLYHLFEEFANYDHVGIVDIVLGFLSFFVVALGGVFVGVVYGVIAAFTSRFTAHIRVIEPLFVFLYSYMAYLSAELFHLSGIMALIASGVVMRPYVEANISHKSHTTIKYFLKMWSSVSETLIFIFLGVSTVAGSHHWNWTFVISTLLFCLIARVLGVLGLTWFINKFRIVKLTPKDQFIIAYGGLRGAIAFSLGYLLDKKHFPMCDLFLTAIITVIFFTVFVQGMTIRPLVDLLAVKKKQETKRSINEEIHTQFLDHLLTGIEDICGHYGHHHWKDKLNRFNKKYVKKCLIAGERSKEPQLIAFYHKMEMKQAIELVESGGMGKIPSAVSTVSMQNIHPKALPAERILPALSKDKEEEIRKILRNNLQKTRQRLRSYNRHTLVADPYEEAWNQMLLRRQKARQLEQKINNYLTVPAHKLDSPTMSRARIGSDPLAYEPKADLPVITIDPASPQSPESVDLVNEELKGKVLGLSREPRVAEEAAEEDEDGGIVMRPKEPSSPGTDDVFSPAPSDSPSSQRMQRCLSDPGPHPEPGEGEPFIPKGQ

| Compound | IC50 [1] | IC50 [2] | IC50 [3] | IC50 [4] | also measured |
| --- | --- | --- | --- | --- | --- |
| C/C(=C\c1cccc(/C=C(\C)C(=O)NC(=N)N)c1)C(=O)N=C(N)N |  |  |  |  | Ratio IC50 (Homo sapiens): > 500 |
| N=C(N)NC(=O)c1nc(Cl)c(N)nc1N [AMILORIDE] | 1000 to 1600 nM | 1000 nM | > 100000 nM | 21000 nM |  |
| CN(C)c1nc(N)c(C(=O)NC(=N)N)nc1Cl | 23 nM |  | 14000 nM |  | IC50 [5]: 250 nM |
| CCN(c1nc(N)c(C(=O)NC(=N)N)nc1Cl)C(C)C [5-(N-ETHYL-N-ISOPROPYL)AMILORIDE] | 10 nM | 500 nM | 2400 nM | 420 nM | IC50 [6]: 20 nM |
| CN1Cc2c(Cl)cc(Cl)cc2[C@H](c2cccc(S(=O)(=O)NCCOCCOCCNC(=O)NCCCCNC(=O)NCCOCCOCCNS(=O)(=O)c3cccc([C@@H]4CN(C)Cc5c(Cl)cc(Cl)cc54)c3)c2)C1 |  |  |  |  | Activity (Rattus norvegicus [7]): Active; Activity (Rattus norvegicus [8]): Active |
| CN1Cc2c(Cl)cc(Cl)cc2[C@@H](c2cccc(S(=O)(=O)NCCOCCOCCNC(=O)NCCCCNC(=O)NCCOCCOCCNS(=O)(=O)c3cccc([C@@H]4CN(C)Cc5c(Cl)cc(Cl)cc54)c3)c2)C1 |  |  |  |  | inhibition (Rattus norvegicus [9]): inactive |

Reference: ChEMBL document CHEMBL4257082, “Nhe3-binding compounds and methods for inhibiting phosphate transport” (2016)
